Measurements published in patent US20040053928A1, “Quinoline derivatives as antibacterials” (priority 2000, published 2004).
Where a name gives a salt, the structure may show the parent alone.

assay: MIC of test compounds against various organisms; format: cell-based; conditions: against one or more of the above range of gram positive and gram negative bacteria
Protocol: The MIC (μg/ml) of test compounds against various organisms was determined:
S. aureus Oxford, S. aureus WCUH29, S. pneumoniae 1629, S. pneumoniae N1387, S. pneumoniae ERY 2, E. faecalis 1, E. faecalis 7, H. influenzae Q1, H. influenzae NEMC1, M. catarrhalis 1502, E. coil 7623, E.coli 120.

| MIC | SMILES |
| --- | --- |
| ≤ 32 µg/mL | CCOC(=O)C1CN(C(=O)Nc2ccnc3ccc(OC)cc23)CCC1NCC(=O)Nc1ccccc1 (racemic) [Example 5, cis-3-(R/S)-Ethoxycarbonyl-4-(S/R)-(phenylcarbamoylmethyl-amino)-piperidine-1-carboxylic acid (6methoxy-quinolin-4-yl)-amide oxalate] |
| ≤ 0.25 µg/mL | COc1ccc2nccc([C@@H](O)CN3CCC(NCC(=O)Nc4ccccn4)CC3)c2c1 [Example 13, 2-{1-[(R)-2-Hydroxy-2-(6-methoxy-quinolin-4-yl)-ethyl]-piperidin-4-ylamino}-N-pyridin-2-yl-acetamide dioxalate] |
| ≤ 32 µg/mL | COc1ccc2nccc(NC(=O)N3CCC(NCC(=O)Nc4ccccc4)C(CO)C3)c2c1 (racemic) [Example 6, cis-3-(R/S)-Hydroxymethyl-4-(S/R)-(phenylcarbamoylmethyl-amino)-piperidine-1-carboxylic acid (6-methoxy-quinolin-4-yl)-amide oxalate] |
| ≤ 0.25 µg/mL | COc1ccc2nccc([C@@H](O)CN3CCC(NC/C=C/c4nccs4)CC3)c2n1 [Example 73, 4-[trans-1-(2-Thiazolyl)-3-propenyl]amino-1-[2-(R)-hydroxy-2-(6-methoxy-[1,5]-naphthyridin-4-yl)]ethylpiperidine dimethanesulphonate] |
| ≤ 0.25 µg/mL | COc1ccc2nccc([C@@H](O)CN3CCC(NCC(=O)Nc4cc(F)cc(F)c4)CC3)c2c1 [Example 29, N-(3,5-Difluoro-phenyl)-2-{1-[(R)-2-hydroxy-2-(6-methoxy-quinolin-4-yl)-ethyl]-piperidin-4-ylamino)-acetamide dioxalate] |
| ≤ 32 µg/mL | COC(=O)C1(NCC(=O)Nc2ccccc2)CCN(C[C@H](O)c2ccnc3ccc(OC)cc23)CC1.O=C(O)C(=O)O.O=C(O)C(=O)O [Example 37, 2-{1-[2-(R)-Hydroxy-2-(6-methoxy-quinolin-4-yl)-ethyl]-4-methoxycarbonyl-piperidin-4-ylamino)-N-phenyl-acetamide dioxalate] |
| ≤ 2 µg/mL | COc1ccc2nccc([C@@H](O)CN3CCC(CO)(NCC(=O)Nc4ccccc4)CC3)c2c1 [Example 38, 2-{1-[2-(R)-Hydroxy-2-(6-methoxy-quinolin-4-yl)-ethyl]-4-hydroxymethyl-piperidin-4-ylamino}-N-phenyl-acetamide dioxalate] |
| ≤ 32 µg/mL | COc1ccc2nccc([C@@H](O)CN3CCC(NCC(=O)Nc4cccc(C#N)c4)CC3)c2c1 [Example 34, N-[3-Cyano-phenyl]-2-{1-[(R)-2-hydroxy-2-(6-methoxy-quinolin-4-yl)-ethyl]-piperidin-4-ylamino)-acetamide dioxalate] |
| ≤ 32 µg/mL | COc1ccc2nccc([C@@H](O)CN3CCC(NCCCn4cc(F)c(=O)[nH]c4=O)CC3)c2c1 [Example 75, 5-Fluoro-1-(3-{1-[(R)-2-hydroxy-2-(6-methoxy-quinolin-4-yl)-ethyl]piperidin-4-ylamino}-propyl)-1H-pyrimidine-2,4-dione dioxolate] |
| ≤ 2 µg/mL | COc1ccc2nccc([C@@H](O)CN3CCC(NCC(=O)Nc4ccc(F)cc4)CC3)c2c1 [Example 41, N-(4-Fluoro-phenyl)-2-{1-[(R)-2-hydroxy-2-(6-methoxy-quinlin-4-yl)-ethyl]-piperidin-4-ylamino}-acetamide dioxalate] |
| ≤ 32 µg/mL | COc1ccc2nccc([C@@H](O)CN3CCC(NCC(=O)Nc4ccc(F)c([N+](=O)[O-])c4)CC3)c2c1 [Example 36, N-[4-Fluoro-3-nitro-phenyl]-2-{1-[(R)-2-hydroxy-2-(6-methoxyquinolin-4-ethyl]-piperidin-4-ylamino)-acetamide dioxalate] |
| ≤ 0.25 µg/mL | COc1ccc2nccc([C@@H](O)CN3CCC(NCC(=O)Nc4ccccc4[N+](=O)[O-])CC3)c2c1 [Example 20, 2-{1-[(R)-2-Hydroxy-2-(6-methoxy-quinolin-4-yl-ethyl]-piperidin-4-ylamino}-N-(2nitro-phenyl)-acetamide dioxalate] |

Further lines, the compound ahead of its results:

| SMILES | MIC |
| --- | --- |
| COc1ccc2nccc([C@@H](O)CN3CCC(NCC(=O)Nc4ccc(Cl)c(Cl)c4)CC3)c2c1 [Example 18, N-(3,4-Dichloro-phenyl)-2-{1-[(R)-2-hydroxy-2-(6-methoxy-quinolin-4-yl-ethyl]-piperidin-4-ylamino)-acetamide dioxalate] | ≤ 2 µg/mL |
| COc1ccc2nccc([C@@H](O)CN3CCC(NC/C=C/c4ccccc4[N+](=O)[O-])CC3)c2c1 [Example 54, 4-[trans-1-(2-Nitrophenyl)-3-propeny]amino-1-[2-(R)-hydroxy-2-(6-methoxyquinolin-4-yl)]ethylpiperidine dioxalate] | ≤ 0.25 µg/mL |
| COc1ccc2nccc([C@@H](O)CN3CCC(NCC(=O)Nc4ccccc4C#N)CC3)c2c1 [Example 19, N-(2Cyano-phenyl)-2-{1-[(R)-2-hydroxy-2-(6-methoxy-quinolin-4-yl-ethyl]-piperidin-4-ylamino)-acetamide dioxalate] | ≤ 0.25 µg/mL |
| COc1ccc2nccc([C@@H](O)CN3CCC(NCC(=O)Nc4ccccc4)C(C(N)=O)C3)c2c1 (mixture of isomers) [Example 4, cis-2-{1-[2-(R)-Hydroxy-2-(6-methoxy-quinolin-4-yl)-ethyl]-3-(R/S)-aminocarbonyl-piperidin-4-(S/R)-ylamino}-N-phenyl-acetamide dioxalate] | ≤ 2 µg/mL |
| COc1ccc2nccc([C@@H](O)CN3CCC(N(C)CC(=O)Nc4ccccc4)CC3)c2c1.O=C(O)C(=O)O.O=C(O)C(=O)O [Example 12, 2-{1-[(R)-2-Hydroxy-2-(6-methoxy-quinolin-4-yl)-ethyl]-piperidin-4-yl-N-methylamino}-N-phenyl-acetamide dioxalate] | ≤ 32 µg/mL |
| COc1ccc2nccc(NC(=O)N3CCC(NCCCc4ccco4)C(CO)C3)c2c1 (racemic) [Example 53, cis-4-(S/R)-[3-(2-Furyl)-propyl]amino-3-(R/S)-hydroxymethyl-[6-methoxyquinolin-4-yl)]aminocarbonylpiperidine oxalate] | ≤ 2 µg/mL |
| COc1ccc2nccc([C@@H](O)CN3CCC(NCC(=O)Nc4ccccc4)C(CO)C3)c2c1 (mixture of isomers) [Example 3, cis-2-{1-[2-(R)-Hydrxy-2-(6-methoxy-quinolin-4-yl)-ethyl]-3-(R/S)-hydroxymethyl-piperidin-4-(S/R)-ylamino}-N-phenyl-acetamide dioxalate] | ≤ 2 µg/mL |
| CCOC(=O)C1CN(C[C@H](O)c2ccnc3ccc(OC)cc23)CCC1NCC(=O)Nc1ccccc1 (mixture of isomers) [Example 2, cis-2-{1-[2-(R)-Hydroxy-2-(6-methoxy-quinolin-4-yl)-ethyl]-3-(R/S)-ethoxycarbonyl-piperidin-4-(S/R)-ylamino}-N-phenyl-acetamide dioxalate] | ≤ 0.25 µg/mL |
| COc1ccc2nccc([C@@H](O)CN3CCC(NCC(=O)Nc4ccccc4)CC3)c2c1 [Example 1, 2-{1-[(R)-2-Hydroxy-2-(6-methoxy-quinoin-4-yl)-ethyl]-piperidin-4-ylamino}-N-phenyl-acetamide dioxalate] | ≤ 0.25 µg/mL |
| COc1ccc2nccc([C@@H](O)CN3CCC(NCC(=O)Nc4ccc(F)c(F)c4)CC3)c2c1 [Example 17, N-(3,4-Difluoro-phenyl)-2-{1-[(R)-2-hydroxy-2-(6-methoxy-quinolin-4-yl-ethyl]-piperidin-4-ylamino)-acetamide dioxalate] | ≤ 0.25 µg/mL |
| COc1cc(F)c2nccc([C@@H](O)CN3CCC(NCCOc4ccccn4)CC3)c2c1 [Example 74, 4-[2-(Pyridin-2-yloxy)-ethylamino]-1-[2-(R)-hydroxy-2-(8-fluoro-6-methoxyquinolin-4-yl)]ethylpiperidine dioxalate] | ≤ 0.25 µg/mL |
| COc1ccc2nccc([C@@H](O)CN3CCC(NC(=O)/C=C/c4ccco4)CC3)c2c1 [Example 72, (E)-3-Furan-2-yl-N-{1-[(R)-2-hydroxy-2-(6-methoxyquinolin-4-yl)-ethyl]-piperidin-4-yl}-acrylamide oxalate] | ≤ 2 µg/mL |
| COc1ccc2nccc(CCN3CCC(NCC(=O)Nc4ccc(F)cc4)CC3)c2c1 [Example 42, N-(4-Fluoro-phenyl)-2-{1-[2-(6-methoxy-quinolin-4-yl)-ethyl]-piperidin-4-ylamino}-acetamide dioxalate] | ≤ 2 µg/mL |
